Columns and labels:
Assay in all cases: NCI 60 cell panel SRB screen
[1] = test system: CCRF-CEM; format: cell-based, human; details: for activity at 10 µM: single dose 10 μM, read-out: percent cell growth promotion
[2] = test system: RPMI-8226; format: cell-based; details: Homo sapiens; for activity at 10 µM: RPMI-8226, single dose 10 μM, read-out: percent cell growth promotion
[3] = test system: SR; format: cell-based; details: Homo sapiens; for activity at 10 µM: single dose 10 μM, read-out: percent cell growth promotion
[4] = test system: A549/ATCC; format: cell-based; details: Homo sapiens; for activity at 10 µM: single dose 10 μM, read-out: percent cell growth promotion
[5] = test system: HOP-92; format: cell-based; details: Homo sapiens; for activity at 10 µM: HOP-92, single dose 10 μM, read-out: percent cell growth promotion
[6] = test system: NCI-H226; format: cell-based; details: Homo sapiens; for activity at 10 µM: NCI-H226, single dose 10 μM, read-out: percent cell growth promotion
[7] = test system: NCI-H23; format: cell-based; details: Homo sapiens; for activity at 10 µM: NCI-H23, single dose 10 μM, read-out: percent cell growth promotion
[8] = test system: NCI-H460; format: cell-based; details: Homo sapiens; for activity at 10 µM: NCI-H460, single dose 10 μM, read-out: percent cell growth promotion
[9] = test system: HCC-2998; format: cell-based; details: Homo sapiens; for activity at 10 µM: HCC-2998, single dose 10 μM, read-out: percent cell growth promotion
[10] = test system: HCT-116; format: cell-based; details: Homo sapiens; for activity at 10 µM: HCT-116, single dose 10 μM, read-out: percent cell growth promotion
[11] = test system: KM12; format: cell-based; details: Homo sapiens; for activity at 10 µM: KM12, single dose 10 μM, read-out: percent cell growth promotion
[12] = test system: SW-620; format: cell-based; details: Homo sapiens; for activity at 10 µM: SW-620, single dose 10 μM, read-out: percent cell growth promotion
[13] = test system: SNB-19; format: cell-based; details: Homo sapiens; for activity at 10 µM: SNB-19, single dose 10 μM, read-out: percent cell growth promotion
[14] = test system: SNB-75; format: cell-based; details: Homo sapiens; for activity at 10 µM: SNB-75, single dose 10 μM, read-out: percent cell growth promotion
[15] = test system: U251; format: cell-based; details: Homo sapiens, U-251; for activity at 10 µM: U251, single dose 10 μM, read-out: percent cell growth promotion
[16] = test system: MALME-3M; format: cell-based; details: Homo sapiens; for activity at 10 µM: read-out: percent cell growth promotion
[17] = test system: M14; format: cell-based; details: Homo sapiens; for activity at 10 µM: M14, read-out: percent cell growth promotion
[18] = test system: SK-MEL-28; format: cell-based; details: Homo sapiens; for activity at 10 µM: SK-MEL-28, read-out: percent cell growth promotion
[19] = test system: SK-MEL-5; format: cell-based; details: Homo sapiens; for activity at 10 µM: SK-MEL-5, read-out: percent cell growth promotion
[20] = test system: OVCAR-5; format: cell-based; details: Homo sapiens; for activity at 10 µM: OVCAR-5, single dose 10 μM, read-out: percent cell growth promotion
[21] = test system: OVCAR-8; format: cell-based; details: Homo sapiens; for activity at 10 µM: OVCAR-8, single dose 10 μM, read-out: percent cell growth promotion
[22] = test system: NCI/ADR-RES; format: cell-based; details: Homo sapiens; for activity at 10 µM: single dose 10 μM, read-out: percent cell growth promotion
[23] = test system: SK-OV-3; format: cell-based; details: Homo sapiens; for activity at 10 µM: SK-OV-3, single dose 10 μM, read-out: percent cell growth promotion
[24] = test system: ACHN; format: cell-based; details: Homo sapiens; for activity at 10 µM: single dose 10 μM, read-out: percent cell growth promotion
[25] = test system: RXF 393; format: cell-based; details: Homo sapiens; for activity at 10 µM: RXF 393, single dose 10 μM, read-out: percent cell growth promotion
[26] = test system: SN12C; format: cell-based; details: Homo sapiens; for activity at 10 µM: single dose 10 μM, read-out: percent cell growth promotion
[27] = test system: TK-10; format: cell-based, human; details: Homo sapiens; TK-10, single dose 10 μM; read-out: percent cell growth promotion
[28] = 5 log dose, 48 h, read-out: LC50 (the source's name)

Cc1nnc(N2CCN(c3ccccn3)CC2)c2ccccc12 [Compound 8i, 1-Methyl-4–(4-(pyridin-2-yl)piperazin-1-yl)phthalazine]
activity at 10 µM ([1]; Homo sapiens): 102% | activity at 10 µM [2]: 104% | activity at 10 µM [3]: 92.1% | activity at 10 µM [4]: 92.3% | activity at 10 µM [5]: 119% | activity at 10 µM [6]: 98.7% | activity at 10 µM [7]: 106% | activity at 10 µM [8]: 103% | activity at 10 µM [9]: 102% | activity at 10 µM [10]: 98.1% | activity at 10 µM [11]: 110% | activity at 10 µM [12]: 113% | activity at 10 µM [13]: 101% | activity at 10 µM [14]: 114% | activity at 10 µM [15]: 98.6% | activity at 10 µM ([16]; Malme-3M): 107% | activity at 10 µM [17]: 98.6% | activity at 10 µM [18]: 101% | activity at 10 µM [19]: 97% | activity at 10 µM [20]: 98.2% | activity at 10 µM [21]: 98.9% | activity at 10 µM [22]: 105% | activity at 10 µM [23]: 108% | activity at 10 µM [24]: 99.6% | activity at 10 µM [25]: 98.6% | activity at 10 µM [26]: 104% | activity at 10 µM [27]: 83.2%

COc1cccc(NCc2nnc(Nc3ccc(Cl)cc3)c3ccccc23)c1 [Compound 16d, N-(4-Chlorophenyl)-4-((3-methoxyphenylamino)methyl)phthalazin-1-amine]
TGI ([1]; 5 log dose): 13.4 µM | GI50 ([1]; Homo sapiens, 5 log dose): 2.73 µM | CC50 ([1]; Homo sapiens, 5 log dose, 48 h, read-out: LC50 (the source's name)): > 25 µM | activity at 10 µM ([1]; Homo sapiens): -4.42% | GI50 ([2]; RPMI-8226, 5 log dose): 1.48 µM | IC (TGI) ([2]; RPMI-8226, 5 log dose): 7.51 µM | CC50 ([2]; RPMI-8226, 5 log dose, 48 h, read-out: LC50 (the source's name)): > 25 µM | activity at 10 µM [2]: -28.1% | GI50 ([3]; 5 log dose): 0.97 µM | IC (TGI) ([3]; 5 log dose): 8.85 µM | CC50 [3, 28]: > 25 µM | activity at 10 µM [3]: -24.5% | GI50 ([4]; 5 log dose): 1.93 µM | IC (TGI) ([4]; 5 log dose): 9.42 µM | LC50 (concentration killing 50% of cells) ([4]; 5 log dose, 48 h): > 25 µM | activity at 10 µM [4]: 2.56% | GI50 ([5]; HOP-92, 5 log dose): 0.32 µM | IC (TGI) ([5]; HOP-92, 5 log dose): 2.91 µM | CC50 ([5]; HOP-92, 5 log dose, 48 h, read-out: LC50 (the source's name)): > 25 µM | activity at 10 µM [5]: -32.8% | GI50 ([6]; NCI-H226, 5 log dose): 0.95 µM | IC (TGI) ([6]; NCI-H226, 5 log dose): 6.82 µM | CC50 ([6]; NCI-H226, 5 log dose, 48 h, read-out: LC50 (the source's name)): > 25 µM | activity at 10 µM [6]: -22.9% | GI50 ([7]; NCI-H23, 5 log dose): 1.22 µM | IC (TGI) ([7]; NCI-H23, 5 log dose): 6.74 µM | CC50 ([7]; NCI-H23, 5 log dose, 48 h, read-out: LC50 (the source's name)): 24.6 µM | activity at 10 µM [7]: 2.05% | GI50 ([8]; NCI-H460, 5 log dose): 2.69 µM | IC (TGI) ([8]; NCI-H460, 5 log dose): 7.15 µM | LC50 (concentration causing 50% cell kill) ([8]; NCI-H460, 5 log dose, 48 h): 19 µM | activity at 10 µM [8]: 0.1% | GI50 ([9]; HCC-2998, 5 log dose): 3.44 µM | IC (TGI) ([9]; HCC-2998, 5 log dose): 8.79 µM | LC50 (50% lethal concentration) ([9]; HCC-2998, 5 log dose, 48 h): 22.5 µM | activity at 10 µM [9]: 2.79% | GI50 ([10]; HCT-116, 5 log dose): 0.88 µM | IC (TGI) ([10]; HCT-116, 5 log dose): 4.2 µM | LC50 (lethal concentration 50%) ([10]; HCT-116, 5 log dose, 48 h): 11.2 µM | activity at 10 µM [10]: -44.2% | GI50 ([11]; KM12, 5 log dose): 0.13 µM | IC (TGI) ([11]; KM12, 5 log dose): 6.52 µM | CC50 ([11]; KM12, 5 log dose, 48 h, read-out: LC50 (the source's name)): 18.6 µM | activity at 10 µM [11]: -24.9% | GI50 ([12]; SW-620, 5 log dose): 2.98 µM | IC (TGI) ([12]; SW-620, 5 log dose): 8.13 µM | CC50 ([12]; SW-620, 5 log dose, 48 h, read-out: LC50 (the source's name)): 22.2 µM | activity at 10 µM [12]: 11.9% | GI50 ([13]; SNB-19, 5 log dose): 3.5 µM | IC (TGI) ([13]; SNB-19, 5 log dose): 13 µM | CC50 ([13]; SNB-19, 5 log dose, 48 h, read-out: LC50 (the source's name)): > 25 µM | activity at 10 µM [13]: 17.8% | GI50 ([14]; SNB-75, 5 log dose): 0.29 µM | IC (TGI) ([14]; SNB-75, 5 log dose): 5.27 µM | LC50 (concentration killing 50% of cells) ([14]; SNB-75, 5 log dose, 48 h): 23.1 µM | activity at 10 µM [14]: -6.06% | GI50 ([15]; U251, 5 log dose): 2.78 µM | IC (TGI) ([15]; U251, 5 log dose): 6.54 µM | CC50 ([15]; U251, 5 log dose, 48 h, read-out: LC50 (the source's name)): > 25 µM | activity at 10 µM [15]: -56.2% | GI50 ([16]; Malme-3M): 1.22 µM | IC (TGI) ([16]; Malme-3M, read-out: TGI): 6.23 µM | activity at 10 µM ([16]; Malme-3M): -22% | CC50 ([16]; MALME-3M, 5 log dose, 48 h, read-out: LC50 (the source's name)): 17.3 µM | GI50 ([17]; M14): 0.85 µM | IC (TGI) ([17]; M14, read-out: TGI): 4.69 µM | activity at 10 µM [17]: -15.7% | CC50 ([17]; M14, 5 log dose, 48 h, read-out: LC50 (the source's name)): 12.9 µM | GI50 ([18]; SK-MEL-28): 2.62 µM | IC (TGI) ([18]; SK-MEL-28, read-out: TGI): 6.17 µM | activity at 10 µM [18]: -16.1% | CC50 ([18]; SK-MEL-28, 5 log dose, 48 h, read-out: LC50 (the source's name)): 14.5 µM | GI50 ([19]; SK-MEL-5): 0.81 µM | IC (TGI) ([19]; SK-MEL-5, read-out: TGI): 4.18 µM | activity at 10 µM [19]: -98.5% | CC50 ([19]; SK-MEL-5, 5 log dose, 48 h, read-out: LC50 (the source's name)): 10.2 µM | GI50 ([20]; OVCAR-5, 5 log dose): 3.38 µM | IC (TGI) ([20]; OVCAR-5, 5 log dose): 11.8 µM | CC50 ([20]; OVCAR-5, 5 log dose, 48 h, read-out: LC50 (the source's name)): > 25 µM | activity at 10 µM [20]: 8.44% | GI50 ([21]; OVCAR-8, 5 log dose): 3.61 µM | IC (TGI) ([21]; OVCAR-8, 5 log dose): 14.7 µM | CC50 ([21]; OVCAR-8, 5 log dose, 48 h, read-out: LC50 (the source's name)): > 25 µM | activity at 10 µM [21]: 3.02% | GI50 ([22]; 5 log dose): 2.55 µM | IC (TGI) ([22]; 5 log dose): > 25 µM | CC50 [22, 28]: > 25 µM | activity at 10 µM [22]: -5.42% | GI50 ([23]; SK-OV-3, 5 log dose): 1.13 µM | IC (TGI) ([23]; SK-OV-3, 5 log dose): 8.19 µM | CC50 ([23]; SK-OV-3, 5 log dose, 48 h, read-out: LC50 (the source's name)): > 25 µM | activity at 10 µM [23]: -11.9% | GI50 ([24]; 5 log dose): 1.56 µM | IC (TGI) ([24]; 5 log dose): 24.4 µM | CC50 [24, 28]: > 25 µM | activity at 10 µM [24]: -5.35% | GI50 ([25]; RXF 393, 5 log dose): 2.16 µM | IC (TGI) ([25]; RXF 393, 5 log dose): 6.11 µM | CC50 ([25]; RXF 393, 5 log dose, 48 h, read-out: LC50 (the source's name)): 15.9 µM | activity at 10 µM [25]: -11.6% | GI50 ([26]; 5 log dose): 2.52 µM | IC (TGI) ([26]; 5 log dose): 11 µM | CC50 [26, 28]: > 25 µM | activity at 10 µM [26]: 14.5% | activity at 10 µM [27]: -40.9%
